Experimental data as given in patent publication US12103951B2, “Use of CGRP receptor antagonists in neuroprotection and neurological disorders” (priority 2016, dated 2024).
Entries after “also recorded” stand apart in the source; their conditions may differ.

System: optic nerve axons
Assay: Rat laser glaucoma model: total number of optic nerve axons (stereology)
Type: in vivo, Wistar rats
Conditions: IP daily for two weeks; for total number of optic nerve axons, lasered vs contralateral control eyes: paired sample t-test, P>0.05
Method: In this study, Wistar rats (n=12) were used for the experiments. The neuroprotective properties of compounds were investigated in a rat laser model of glaucoma. Rats were divided into two groups of six rats each. One group served as a placebo control receiving vehicle (NaCl) injections, and the other was treated with a peptide CGRP receptor antagonist (SEQ ID NO: 1). For all 12 rats, the contralateral, untreated eye served as a naïve undiseased control. The vehicle control and test compound (20 mg/kg) were administered systemically (IP) daily for the whole follow-up period of two weeks. The animals were sacrificed using transcardial perfusion. The retinal whole-mounts were then immuno-stained against retinal ganglion cell (RGC) marker Brn3a and astrocytic marker GFAP (glial fibrillary acidic protein). The number of Brn3a positive profiles was manually counted from retinal images taken from central and peripheral parts of retina. The total number of GFAP-immunoreactive cells (retinal astrocytes) was estimated using stereology. The total number of RGC axons in the optic nerve was estimated using stereology.
The rat glaucoma model was induced unilaterally by laser photocoagulation of episcleral veins as previously described (Kalesnykas et al., 2007). Anesthesia was performed using sodium pentobarbital (30 mg/kg). […]
2. Quantification of optic nerve axons using stereology. […]
After the optic nerves were post-fixed in 4% PFA (in 0.1M phosphate buffer, pH 7.4) solution, they were placed in 1% osmium, dehydrated in ascending alcohol concentration and placed in 1% uranyl acetate in 100% ethanol for 1 hour (Cone et al., 2012). […] Briefly, axons were counted manually using the Stereo Investigator software (MicroBrightField, VT, USA). […]
Quantitative data was graphed, analyzed and presented as mean±standard deviation (SD) or standard error of mean (SEM). Parametric data was analyzed using paired-samples T-test (the contralateral eye of the same animal serves as control). Non-parametric data was analyzed using Mann-Whitney U test (comparison of 2 groups) or Wilcoxon paired-samples T-test. […]

Substance: NH2-Ala-Cys-Asp-Thr-Ala-Ala-Cys-Val-Leu-Gly-Arg-Leu-Ser-Gln-Glu-Leu-His-Arg-Leu-Gln-Thr-Tyr-Pro-Arg-Thr-Asn-Val-Gly-Ser-Lys-Ala-Phe-NH2 (H-ACDTAACVLGRLSQELHRLQTYPRTNVGSKAF-NH2; ends and bridges not checked) [SEQ ID NO: 1, peptide CGRP receptor antagonist]
- total number of optic nerve axons, increase vs optic nerves from contralateral control eyes (increase): 1.7%
- total number of optic nerve axons, lasered vs contralateral control eyes: did not differ significantly; also recorded: smallest decrease in the total number of axons
- total number of optic nerve axons, lasered vs contralateral control eyes (listed as CGRP antagonist): slight increase
